Measured values published in US9079930B2, “Substituted pyrimidines” (MERCK SHARP & DOHME CORP., priority 2011, dated 2015).

target: T1, FLAG-tagged full length PHD2 (Homo sapiens, UniProt Q9GZT9); test: PHD2 inhibition assay (time resolved fluorescence, HIF-1α peptide hydroxylation, VHL complex detection); assay type: biochemical; conditions: 0.2 μM 2-oxoglutarate, 0.5 μM HIF-1α peptide
T1 construct: FLAG-tagged full length PHD2 expressed in and purified from baculovirus-infected Sf9 cells; FLAG; made in house; host or cells: baculovirus-infected Sf9 cells
T1 sequence (Q9GZT9 whole entry): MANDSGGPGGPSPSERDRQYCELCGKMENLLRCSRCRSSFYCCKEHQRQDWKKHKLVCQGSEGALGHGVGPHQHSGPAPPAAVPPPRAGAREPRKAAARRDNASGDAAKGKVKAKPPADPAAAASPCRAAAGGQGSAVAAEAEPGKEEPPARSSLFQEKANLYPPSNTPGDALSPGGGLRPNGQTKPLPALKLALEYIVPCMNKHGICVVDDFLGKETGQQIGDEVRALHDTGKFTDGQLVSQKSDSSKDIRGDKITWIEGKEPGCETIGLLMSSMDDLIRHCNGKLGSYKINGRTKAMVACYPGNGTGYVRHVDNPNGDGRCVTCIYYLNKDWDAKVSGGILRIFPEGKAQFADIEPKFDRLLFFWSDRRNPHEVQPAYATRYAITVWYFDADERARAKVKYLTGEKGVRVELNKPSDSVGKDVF
Method: To each well of a 96-well plate was added 1 μL of test compound in DMSO and 20 μl of assay buffer (50 mM Tris pH 7.4/0.01% Tween-20/0.1 mg/ml bovine serum albumin/10 μM ferrous sulfate/i mM sodium ascorbate/20 μg/ml catalase) containing 0.15 μg/ml FLAG-tagged full length PHD2 expressed in and purified from baculovirus-infected Sf9 cells. After a 30 min preincubation at room temperature, the enzymatic reactions were initiated by the addition of 4 μL of substrates (final concentrations of 0.2 μM 2-oxoglutarate and 0.5 μM HIF-1α peptide biotinyl-DLDLEMLAPYIPMDDDFQL (SEQ ID NO: 1)). After 2 hr at room temperature, the reactions were terminated and signals were developed by the addition of a 25 μL quench/detection mix to a final concentration of 1 mM ortho-phenanthroline, 0.1 mM EDTA, 0.5 nM anti-(His)6 LANCE reagent (Perkin-Elmer Life Sciences), 100 nM AF647-labeled streptavidin (Invitrogen), and 2 μg/ml (His)6-VHL complex (S. Tan (2001) Protein Expr. Purif. 21, 224-234). The ratio of time resolved fluorescence signals at 665 and 620 nm was determined, and percent inhibition was calculated relative to an uninhibited control sample run in parallel.

Row | SMILES | IC50
1 | CCOP(=O)(OCC)c1ccc(C(C)NC(=O)c2cnc(-c3ccccn3)nc2O)cc1 (stereo not shown) [Compound 3-1, Diethyl 4-(1-(4-hydroxy-2-(pyridin-2-yl)pyrimidine-5-carboxamido)ethyl)phenyl phosphonate] | 20 to 100 nM
2 | O=C(NC(c1ccccc1)P(=O)(O)O)c1cnc(-c2cccnn2)nc1O (stereo not shown) [Compound 30-1, (4-hydroxy-2-(pyridazin-3-yl)pyrimidine-5-carboxamido)(phenyl)methylphosphonic acid] | 20 to 100 nM
3 | CC(NC(=O)c1cnc(-c2ccccn2)nc1O)c1ccc(P(=O)(O)O)cc1 (stereo not shown) [Compound 3-2, 4-(1-(4-hydroxy-2-(pyridin-2-yl)pyrimidine-5-carboxamido)ethyl)phenylphosphonic acid] | 100 to 10000 nM
4 | C[C@H](NC(=O)c1cnc(-c2cccnn2)nc1O)c1ccc(P(=O)(O)O)cc1 [Compound 3-7a, (S)-4-(1-(4-hydroxy-2-(pyridazin-3-yl)pyrimidine-5-carboxamido)ethyl)phenylphosphonic acid] | 100 to 10000 nM
5 | CCOC(=O)C(C)NP(=O)(N[C@@H](C)C(=O)OCC)c1ccc(C(NC(=O)c2cnc(-c3ccccn3)nc2O)c2ccc(OC)cc2)cc1 (stereo in doubt) [Compound 1-1-3, (2S,2′S)-diethyl 2,2′-((4-((4-hydroxy-2-(pyridin-2-yl)pyrimidine-5-carboxamido)(4-methoxyphenyl)methyl)phenyl)phosphoryl)bis(azanediyl)dipropanoate] | 20 to 100 nM
6 | CCOP(=O)(OCC)C(NC(=O)c1cnc(-n2cccn2)nc1O)c1ccc(OC)cc1 (stereo not shown) [Compound 10-1, Diethyl (4-hydroxy-2-(1H-pyrazol-1-yl)pyrimidine-5-carboxamido)(4-methoxyphenyl)methylphosphonate] | 0.5 to 20 nM
7 | C[C@H](NC(=O)c1cnc(-c2ccccn2)nc1O)c1ccc(P(=O)(O)O)cc1 [Compound 3-7, (S)-4-(1-(4-hydroxy-2-(pyridin-2-yl)pyrimidine-5-carboxamido)ethyl)phenylphosphonic acid] | 100 to 10000 nM
8 | COc1ccc(C(NC(=O)c2cnc(-c3cccnn3)nc2O)P(=O)(O)O)cc1 (stereo not shown) [Compound 36-1, (4-Hydroxy-2-(pyridazin-3-yl)pyrimidine-5-carboxamido)(4-methoxyphenyl)methyl phosphonic acid] | 20 to 100 nM
9 | COc1ccc(C(NC(=O)c2cnc(-c3cccnn3)nc2O)c2ccc([PH](=O)O)cc2)cc1 (stereo not shown) [Compound 9-2, 4-((4-hydroxy-2-(pyridazin-3-yl)pyrimidine-5-carboxamido)(4-methoxyphenyl)methyl)phenylphosphinic acid] | 0.5 to 20 nM
10 | COc1ccc(C(NC(=O)c2cnc(-n3cccn3)nc2O)c2ccc([PH](=O)O)cc2)cc1 (stereo not shown) [Compound 9-1, 4-((4-Hydroxy-2-(1H-pyrazol-1-yl)pyrimidine-5-carboxamido)(4-methoxyphenyl)methyl)phenylphosphinic acid] | 0.5 to 20 nM
11 | CP(=O)(O)c1ccc(C(NC(=O)c2cnc(-n3cccn3)nc2O)c2ccccc2)cc1 (stereo not shown) [Compound 8-4, 4-((4-Hydroxy-2-(1H-pyrazol-1-yl)pyrimidine-5-carboxamido)(phenyl)methyl)phenyl(methyl)phosphinic acid] | 0.5 to 20 nM
12 | CP(=O)(O)c1ccc(C(NC(=O)c2cnc(-n3cccn3)nc2O)c2ccc(F)cc2)cc1 (stereo not shown) [Compound 17-1, 4-((4-fluorophenyl)(4-hydroxy-2-(1H-pyrazol-1-yl)pyrimidine-5-carboxamido)methyl)phenyl(methyl)phosphinic acid] | 0.5 to 20 nM
13 | CCOP(=O)(O)c1ccc(C(NC(=O)c2cnc(-n3cccn3)nc2O)c2ccccc2)cc1 (stereo not shown) [Compound 8-2, Ethyl hydrogen 4-((4-hydroxy-2-(1H-pyrazol-1-yl)pyrimidine-5-carboxamido)(phenyl)methyl)phenylphosphonate] | 0.5 to 20 nM
14 | CCOP(C)(=O)c1ccc(C(NC(=O)c2cnc(-n3cccn3)nc2O)c2ccccc2)cc1 (stereo not shown) [Compound 8-3, Ethyl 4-((4-hydroxy-2-(1H-pyrazol-1-yl)pyrimidine-5-carboxamido)(phenyl)methyl)phenyl(methyl)phosphinate] | 0.5 to 20 nM
15 | CP(=O)(O)c1ccc(C(NC(=O)c2cnc(-c3ccccn3)nc2O)c2ccccc2)cc1 (stereo not shown) [Compound 2-5, 4-((4-hydroxy-2-(pyridin-2-yl)pyrimidine-5-carboxamido)(phenyl)methyl)phenyl(methyl)phosphinic acid] | 0.5 to 20 nM
16 | CCOP(=O)(O)c1ccc(C(C)NC(=O)c2cnc(-c3ccccn3)nc2O)cc1 (stereo not shown) [Compound 3-3, Ethyl hydrogen 4-(1-(4-hydroxy-2-(pyridin-2-yl)pyrimidine-5-carboxamido)ethyl)phenylphosphonate] | 100 to 10000 nM
17 | C[C@@H](NC(=O)c1cnc(-n2cccn2)nc1O)c1ccc(P(=O)(O)O)cc1 [Compound 15-2, (R)-4-(1-(4-hydroxy-2-(1H-pyrazol-1-yl)pyrimidine-5-carboxamido)ethyl)phenyl phosphonic acid] | 0.5 to 20 nM
18 | CCOP(=O)(O)c1ccc(C(NC(=O)c2cnc(-c3ccccn3)nc2O)c2ccccc2)cn1 (stereo not shown) [Compound 4-2, Ethyl hydrogen 5-((4-hydroxy-2-(pyridin-2-yl)pyrimidine-5-carboxamido)(phenyl)methyl)pyridin-2-ylphosphonate] | 0.5 to 20 nM
19 | CCOP(=O)(OCC)c1ccc(C(NC(=O)c2cnc(-n3cccn3)nc2O)c2ccccc2)cc1 (stereo not shown) [Compound 8-1, Diethyl 4-((4-hydroxy-2-(1H-pyrazol-1-yl)pyrimidine-5-carboxamido)(phenyl)methyl)phenylphosphonate] | 0.5 to 20 nM

Results, then the compound that gave them:

Row | IC50 | SMILES
20 | 0.5 to 20 nM | CP(=O)(O)c1cccc([C@H](NC(=O)c2cnc(-n3cccn3)nc2O)c2ccccc2)c1 [Compound 24-1, 3-((R)-(4-hydroxy-2-(1H-pyrazol-1-yl)pyrimidine-5-carboxamido)(phenyl)methyl)phenyl(methyl)phosphinic acid]
21 | 0.5 to 20 nM | CP(=O)(O)c1ccc([C@@H](NC(=O)c2cnc(-n3cccn3)nc2O)c2ccccc2)cc1 [Compound 22-1, 4-((S)-(4-hydroxy-2-(1H-pyrazol-1-yl)pyrimidine-5-carboxamido)(phenyl)methyl)phenyl(methyl)phosphinic acid]
22 | 0.5 to 20 nM | CP(=O)(O)c1ccc([C@H](NC(=O)c2cnc(-n3cccn3)nc2O)c2ccc(F)cc2F)cc1 [Compound 21-1, 4-((S)-(2,4-difluorophenyl)(4-hydroxy-2-(1H-pyrazol-1-yl)pyrimidine-5-carboxamido)methyl)phenyl(methyl)phosphinic acid]
23 | 0.5 to 20 nM | COc1ccc(C(NC(=O)c2cnc(-c3cccnn3)nc2O)P(=O)(O)O)cc1 (stereo not shown) [Compound 30-2, (4-Hydroxy-2-(pyridazin-3-yl)pyrimidine-5-carboxamido)(4-methoxyphenyl)methyl phosphonic acid]
24 | 0.5 to 20 nM | COc1ccc(C(NC(=O)c2cnc(-c3ccccn3)nc2O)c2ccc(P(=O)(O)O)cc2)cc1 (stereo not shown) [Compound 1-1-2, 4-((4-hydroxy-2-(pyridin-2-yl)pyrimidine-5-carboxamido)(4-methoxyphenyl)methyl)phenylphosphonic acid]
25 | 0.5 to 20 nM | CP(=O)(O)c1ccc([C@H](NC(=O)c2cnc(-n3cc(F)cn3)nc2O)c2ccc(F)cc2)cc1 [Compound 29-1, 4-((R)-(2-(4-fluoro-1H-pyrazol-1-yl)-4-hydroxypyrimidine-5-carboxamido)(4-fluorophenyl)methyl)phenyl(methyl)phosphinic acid]
26 | 0.5 to 20 nM | COc1ccc(C(NC(=O)c2cnc(-c3ccccn3)nc2O)c2cccc(P(=O)(O)O)c2)cc1 (stereo not shown) [Compound 5-1, 3-((4-hydroxy-2-(pyridin-2-yl)pyrimidine-5-carboxamido)(4-methoxyphenyl)methyl)phenylphosphonic acid]
27 | 0.5 to 20 nM | CC(C)(NC(=O)c1cnc(-c2cccnn2)nc1O)c1ccc(-c2ccc(P(=O)(O)O)cc2)nc1 [Compound 33-1, 4-(5-(2-(4-hydroxy-2-(pyridazin-3-yl)pyrimidine-5-carboxamido)propan-2-yl)pyridine-2-yl)phenylphosphonic acid]
28 | 0.5 to 20 nM | CP(=O)(O)c1ccc([C@H](NC(=O)c2cnc(-n3cccn3)nc2O)c2ccccc2)cc1 [Compound 23-1, 4-((R)-(4-hydroxy-2-(1H-pyrazol-1-yl)pyrimidine-5-carboxamido)(phenyl)methyl)phenyl(methyl)phosphinic acid]
29 | 0.5 to 20 nM | CP(=O)(O)c1ccc([C@@H](NC(=O)c2cnc(-n3cccn3)nc2O)c2ccc(F)cc2)cc1 [Compound 19-1, 4-((S)-(4-fluorophenyl)(4-hydroxy-2-(1H-pyrazol-1-yl)pyrimidine-5-carboxamido)methyl)phenyl(methyl)phosphinic acid]
30 | 0.5 to 20 nM | COc1ccc(C(NC(=O)c2cnc(-c3cccnn3)nc2O)c2ccc(CP(=O)(O)O)cc2)cc1 (stereo not shown) [Compound 32-1, 4-((4-hydroxy-2-(pyridazin-3-yl)pyrimidine-5-carboxamido)(4-methoxyphenyl)methyl)benzylphosphonic acid]
31 | 0.5 to 20 nM | CP(=O)(O)c1ccc([C@H](NC(=O)c2cnc(-n3cccn3)nc2O)c2ccc(F)cc2)cc1 [Compound 18-1, 4-((R)-(4-fluorophenyl)(4-hydroxy-2-(1H-pyrazol-1-yl)pyrimidine-5-carboxamido)methyl)phenyl(methyl)phosphinic acid]
